Literature values as cited in patent US20240374528A1, “[…] DOSAGE FORMS COMPRISING DEUTETRABENAZINE” (AUSPEX PHARMACEUTICALS, INC., priority 2021, published 2024).

Settings: relative to tetrabenazine; U.S. Pat. No. 8,524,733

For [2H]C([2H])([2H])Oc1cc2c(cc1OC([2H])([2H])[2H])[C@H]1CC(=O)[C@H](CC(C)C)CN1CC2 [Deutetrabenazine, (RR,SS)-1,3,4,6,7,11b-hexahydro-9,10-di(methoxy-D3)-3-(2-methylpropyl)-2H-benzo[a]quinolizin-2-one], the “half-life of active metabolites” value is given as “increased half-life of its active metabolites”.
